Assay results as given in patent US11690824B2, “Antibacterial compounds” (THE GENERAL HOSPITAL CORPORATION, priority 2018, dated 2023).
Values after ≈ are worked out from the molar mass of the structure shown.

Assays:
E. aerogenes ATCC 13048 = assay: MIC assay; format: cell-based, Enterobacter aerogenes; details: Klebsiella aerogenes, ATCC13048; E. aerogenes ATCC 13048; read-out: Minimum inhibitory concentration
Text: (§1) Bacterial strains, growth conditions, and persister isolation. Methicillin-resistant S. aureus strains, MW2 BAA-1707, ATCC 33591, and JE2, methicillin-susceptible S. aureus strains, NCTC 8325, Newman, and ATCC 29213, vancomycin-resistant S. aureus strain, VRS1, Enterococcus faecium E007, vancomycin-resistant E. faecium strains, C68,^7 WB312, and WC196, Klebsiella pneumoniae WGLW2 (BEI Resources, Manassas, Va., USA), Acinetobacter baumannii ATCC 17978, Pseudomonas aeruginosa PA14, and Enterobacter aerogenes ATCC 13048 were used to test antimicrobial activity (Table 1). S. aureus strains were grown in tryptic soy broth (TSB) (BD, Franklin Lakes, N.J., USA), and E. faecium was grown in brain-heart infusion (BHI) broth (BD, Franklin Lakes, N.J., USA) at 37° C. K. pneumoniae, A. baumannii, P. aeruginosa, and E. aerogenes were grown in Luria Bertani (LB) broth (BD, Franklin Lakes, N.J., USA) at 37° C.
(§2) Minimal inhibitory concentration (MIC) assay. The MICS of antibiotics were determined by the standard micro-dilution method recommended by the Clinical and Laboratory Standards Institute. MIC assays were conducted in biological triplicate.

S. aureus VRS1 = assay: MIC assay; format: cell-based; details: Staphylococcus aureus; S. aureus VRS1; read-out: Minimum inhibitory concentration
Text: as §1, §2

S. aureus JE2 = assay: MIC assay; format: cell-based; details: Staphylococcus aureus; S. aureus JE2; read-out: Minimum inhibitory concentration
Text: as §1, §2

S. aureus Newman = assay: MIC assay; format: cell-based; details: Staphylococcus aureus; S. aureus Newman; read-out: Minimum inhibitory concentration
Text: as §1, §2

S. aureus NCTC 8325 = assay: MIC assay; format: cell-based; details: Staphylococcus aureus, NCTC8325; S. aureus NCTC 8325; read-out: Minimum inhibitory concentration
Text: as §1, §2

S. aureus ATCC 29213 = assay: MIC assay; format: cell-based; details: Staphylococcus aureus, ATCC29213; S. aureus ATCC 29213; read-out: Minimum inhibitory concentration
Text: as §1, §2

S. aureus ATCC 33591 = assay: MIC assay; format: cell-based; details: Staphylococcus aureus, ATCC33591; S. aureus ATCC 33591; read-out: Minimum inhibitory concentration
Text: as §1, §2

[1] = tested on: MRSA-infected C. elegans glp-4(bn2);sek-1(km4); assay: C. elegans-MRSA liquid killing assay; format: in vivo
Protocol: C. elegans-MRSA liquid killing assay. The C. elegans-MRSA infection assay was conducted as described in a previous study. Briefly, a black, clear-bottom 384-well plate (Corning no. 3712) was filled with 20 μL M9 buffer including the desired concentrations of nTZDpa, 1% DMSO (negative control), or 10 μg/mL vancomycin (positive control). After adding 15 young adult C. elegans glp-4(bn2);sek-1(km4) animals to the wells using a COPAS large particle sorter (Union Biometrica, Mass., USA), 35 μL of MRSA MW2 suspension was added (OD600 0.08). The assay plate was sealed with a gas-permeable membrane (Breathe-Easy, Diversified Biotech, Dedham, Mass., USA), and then incubated in a humidified chamber at 25° C. for 5 days. After washing the plate 8-times with M9 buffer using a microplate washer (BioTek EL×405, BioTek, Vt., USA), worms were stained with 0.7 μM SYTOX Orange. To evaluate worm survivability, the worms were imaged using an Image Xpress Micro automated microscope (Molecular Devices), capturing both transmitted light and TRITC (535 nm excitation, 610 nm emission) fluorescent images with a 2× objective. Only dead worms stain with SYTOX Orange. The assay was conducted in biological triplicate.

## O=C(O)c1c(Sc2ccccc2)c2cc(Cl)ccc2n1Cc1ccc(Cl)cc1 [nTZDpa]
E. aerogenes ATCC 13048
  MIC: > 64 µg/mL
S. aureus VRS1
  MIC: 4 µg/mL (≈ 9.34 µM)
S. aureus JE2
  MIC: 4 µg/mL (≈ 9.34 µM)
S. aureus Newman
  MIC: 4 µg/mL (≈ 9.34 µM)
S. aureus NCTC 8325
  MIC: 4 µg/mL (≈ 9.34 µM)
S. aureus ATCC 29213
  MIC: 4 µg/mL (≈ 9.34 µM)
S. aureus ATCC 33591
  MIC: 4 µg/mL (≈ 9.34 µM)
[1]; 2 μg/ml to 16 μg/ml
  C. elegans rescued from MRSA-mediated lethality: ~90%
[1]; Caenorhabditis elegans, 120 h, read-out: EC50 (median effective concentration), C. elegans survival
  EC50: ~0.6 µg/mL (≈ 1.4 µM)
[1]; fold higher
  EC50 relative to EC50 of vancomycin: 2 fold
